Source: publication PMC8175350, “Drug repurposing screens identify chemical entities for the development of COVID-19 interventions” (Nature Communications, 2021)
Where two headings read alike, the source gives them in different places.

What was measured:
[1] = Uninfected Calu-3 48 h Cell-Titer Glo cytotoxicity counter screen; settings: human, uninfected Calu-3 cells, Calu-3 uninfected cytotoxicity CC50 GeoMean
Calu-3 cells [2] = assay: cells; settings: Homo sapiens; for EC50: Calu-3, read-out: Calu-3 cell count EC50 GeoMean; for Emax: Calu-3, 48 h, read-out: Calu-3 cell count Sinf Average
SARS-CoV-2 [3] = assay: microbe, parasite or virus in culture; format: cell-based; settings: for Emax: Severe acute respiratory syndrome coronavirus 2, HeLa-ACE2, 10 h, read-out: HeLa-ACE2 TOA CoV-2 Sinf Average; for EC50: read-out: HeLa-ACE2 TOA CoV-2 EC50 GeoMean
[4] = Uninfected HeLa-ACE2 24 h live/dead cytotoxicity counter screen; format: cell-based, human; settings: human, uninfected HeLa-ACE2 cells; read-out: HeLa-ACE2 uninfected cytotoxicity CC50 GeoMean
HeLa-ACE2 cells [5] = assay: cells; settings: Homo sapiens; for Emax: HeLa-ACE2, 24 h, read-out: HeLa-ACE2 cell count Sinf Average; for EC50: HeLa-ACE2, read-out: HeLa-ACE2 cell count EC50 GeoMean
SARS-CoV-2 [6] = assay: microbe, parasite or virus in culture; format: cell-based; settings: for Emax: Severe acute respiratory syndrome coronavirus 2, Calu-3, 48 h, read-out: Calu-3 CoV-2 Sinf Average; for EC50: read-out: Calu-3 CoV-2 EC50 GeoMean; for Calu-3 SI: selectivity index, uninfected Calu-3 CC50 / SARS-CoV-2 EC50
SARS-CoV-2 [7] = assay: microbe, parasite or virus in culture; format: cell-based; settings: for Emax: Severe acute respiratory syndrome coronavirus 2, HeLa-ACE2, 24 h, read-out: HeLa-ACE2 CoV-2 Sinf Average; for EC50: read-out: HeLa-ACE2 CoV-2 EC50 GeoMean
HEK293T [8] = assay: HEK293T 72 h CellTiter-Glo cytotoxicity; settings: 72 h
[9] = HEK293T 72 h CellTiter-Glo cytotoxicity; settings: human, HEK293T cells
HepG2 [10] = assay: HepG2 72 h CellTiter-Glo cytotoxicity; settings: 72 h
[11] = HepG2 72 h CellTiter-Glo cytotoxicity; settings: human, HepG2 cells
HeLa-ACE2 cells [12] = assay: Total cell count in the HeLa-ACE2 TOA (time of addition) assay; format: cell-based, human; settings: for EC50: Homo sapiens, HeLa-ACE2, read-out: HeLa-ACE2 TOA cell count EC50 GeoMean
Calu-3 cells [13] = settings: for Calu-3 uninfected cytotoxicity Sinf Average: human
HEK293T [14] = settings: human
HeLa-ACE2 cells [15] = assay: Uninfected HeLa-ACE2 24 h live/dead cytotoxicity counter screen; format: cell-based, human
HepG2 [16] = settings: human
in vitro = settings: human, Calu-3 uninfected cytotoxicity CC50 GeoMean
SARS-CoV-2 [17] = format: cell-based; settings: combination with remdesivir
[18] = Severe acute respiratory syndrome coronavirus 2, HeLa-ACE2
[19] = Severe acute respiratory syndrome coronavirus 2, Calu-3
[20] = Severe acute respiratory syndrome coronavirus 2, HeLa-ACE2, detail column
[21] = human, uninfected HeLa-ACE2 cells, 24 h
[22] = Severe acute respiratory syndrome coronavirus 2, Calu-3, detail column
[23] = selectivity index, uninfected HeLa-ACE2 CC50 / SARS-CoV-2 EC50

Row | SMILES | EC50 (Calu-3 cells [2]) | Emax (SARS-CoV-2 [3]) | EC50 (SARS-CoV-2 [3]; [18]) | CC50 at 24 h [4] | Emax (HeLa-ACE2 cells [5]) | EC50 (HeLa-ACE2 cells [5]) | Emax (SARS-CoV-2 [6]) | Emax (SARS-CoV-2 [7]) | EC50 (HeLa-ACE2 cells [12]) | TOA:HeLa-ACE2 EC50 Ratio (SARS-CoV-2 [3]) | uninfected Calu-3 CC50 (Calu-3 cells [13]) | Calu-3 uninfected cytotoxicity Sinf Average (Calu-3 cells [13]; 48 h) | HEK293T 72-hour cytotoxicty Sinf Average (HEK293T [14]; 72 h) | HeLa-ACE2 uninfected cytotoxicity Sinf Average (HeLa-ACE2 cells [15]; [21]) | EC50 (SARS-CoV-2 [6]; [22]) | Calu-3 SI (SARS-CoV-2 [6]) | EC50 (SARS-CoV-2 [7]; [20]) | HeLa-ACE2 SI (SARS-CoV-2 [7]; [23]) | HepG2 72-hour cytotoxicity Sinf Average (HepG2 [16]; 72 h) | CC50 at 48 h (in vitro) | other results
1 | Cc1c(-c2ccc(O)cc2)n(Cc2ccc(OCCN3CCCCCC3)cc2)c2ccc(O)cc12 [Bazedoxifene acetate] | > 9.98 µM | 100% | > 4.47 µM | > 20.7 µM | 100% | > 8.59 µM | 94% | 100% | > 9.59 µM |  |  |  |  |  |  |  |  |  |  |  | CC50 at 48 h [1]: 10.6 µM; EC50 (SARS-CoV-2 [6]; [19]): > 7.73 µM; EC50 (SARS-CoV-2 [7]; [18]): 2.89 µM; HEK293T 72-hour cytotoxicty Sinf Average (HEK293T [8]): -106%; CC50 at 72 h [9]: 9.19 µM; HepG2 72-hour cytotoxicity Sinf Average (HepG2 [10]): -99%; CC50 at 72 h [11]: 3.21 µM
2 | COc1cc(C[C@H]2c3cc(OC)c(OC)cc3CCN2C)c(Oc2cc3c(cc2OC)-c2c(OC)c(OC)cc4c2[C@H](C3)N(C)CC4)cc1OC [Thalicarpine] | > 9.98 µM | 100% |  | > 26.6 µM |  | > 9.6 µM |  | 96% | > 9.61 µM | 16.501 |  |  |  |  |  |  |  |  |  |  | Calu-3 uninfected cytotoxicity Sinf Average (Calu-3 cells [13]): -92%; Emax (Calu-3 cells [2]): -100%; EC50 (SARS-CoV-2 [3]; [20]): > 9.61 µM; HEK293T 72-hour cytotoxicty Sinf Average (HEK293T [14]): -105%; HeLa-ACE2 uninfected cytotoxicity Sinf Average (HeLa-ACE2 cells [15]): -99%; EC50 (SARS-CoV-2 [6]; [19]): > 9.98 µM; HeLa-ACE2 SI (SARS-CoV-2 [7]): > 45.67; EC50 (SARS-CoV-2 [7]; [18]): 0.582 µM; HepG2 72-hour cytotoxicity Sinf Average (HepG2 [16]): -105%; CC50 (in vitro): > 15.3 µM
3 | CC(C)Oc1ccc(-c2nc(-c3cccc4c3CC[C@@H]4NCCO)no2)cc1C#N [Ozanimod] | > 9.98 µM | 100% | > 7.24 µM | > 14.7 µM | 100% | > 8.74 µM | 97% | 101% | > 9.59 µM | 2.748 | 13.319 ×÷ 1.347 (n=3) μM | -100% | -100% | -101% | > 7.74 µM | < 1.72 | 2.63 µM | > 5.60 | -103% | 13.3 µM | Emax (Calu-3 cells [2]): 100%; HeLa-ACE2 synergy score with remdesivi (SARS-CoV-2 [17]): -4.622 δ
4 | CCCCC1CCc2cc(O)cc3c(CCN4CCN(c5cc(C)ccn5)CC4)c(C)n1c23 (stereo not shown) [KC 11404] | > 9.98 µM | 100% | 2.16 µM | > 20.9 µM | 100% | > 9.59 µM | 100% | 100% | > 9.59 µM | 0.864 | 12.778 ×÷ 1.123 (n=3) μM | -100% | -100% | -100% | 8.02 µM | 1.59 | 2.5 µM | > 8.39 | -101% | 12.8 µM | HeLa-ACE2 TOA cell count Sinf Average (HeLa-ACE2 cells [12]): 100%; HeLa-ACE2 synergy score with remdesivi (SARS-CoV-2 [17]): -2.817 δ
5 | CCCCN1CC[C@H](c2ccc(N(C)C)cc2)[C@@H](COc2ccc(C(F)(F)F)cc2)C1 [NNC 090026] | > 9.98 µM | 100% | 4.77 µM | > 15.4 µM | 96% | > 8.97 µM | 100% | 94% | > 9.61 µM | 1.737 | > 23.525 ×÷ 1.612 (n=4) μM | -100% | -100% | -100% | > 8.31 µM | > 2.83 | 2.75 µM | > 5.59 | -100% | > 23.5 µM | 
